{
  "source": "patent US8986689B2",
  "about": "“Compositions and methods for brain delivery of analgesic peptides” (National Research Council of Canada, priority 2010, dated 2015)",
  "molecules": {"B1": {"name": "FC5: blood-brain barrier-transmigrating single domain antibody, SEQ ID NO:4, expressed with His5 and c-myc tags (protein)", "VHH": "EVQLQASGGGLVQAGGSLRLSCAASGFKITHYTMGWFRQAPGKEREFVSRITWGGDNTFYSNSVKGRFTISRDNAKNTVYLQMNSLKPEDTADYYCAAGSTSTATPLRVDYWGKGTQVTVSS", "modifications": "His5 and c-myc tags; FC5 sdAb"}},
  "key": {"male CD-1 mice": {"tested_on": "male CD-1 mice", "assay": "Tail flick assay (acute pain)", "type": "in vivo, mouse", "settings": "for Analgesic effect after intra-cerebroventricular injection: 15 min and 30 min after injection"}, "male Wistar rats": {"tested_on": "male Wistar rats", "assay": "Paw flick assay (Hargreaves method, CFA chronic inflammatory pain)", "type": "in vivo, rat", "settings": "for Analgesic effect after intravenous injection: tail vein, three injections at 0, 1 and 2 h, Dalargin-cys 0.34 mg/kg, FC5 and EG2-Dalargin 7 mg/kg", "protocol": "(§1) Chronic inflammatory pain was induced in 4-6 week old male Wistar rats, by a intra-plantar (i.pl.) injection (100 μl with a 30-gauge needle) of complete Freund's adjuvant in sterile water in a ratio of 1:1 in the right hind paw under brief isoflurane anesthesia (3%). Three days after CFA injection the putative antinociceptive effect of different compounds was quantified by measuring latencies of withdrawal of both hind limb paws (ipsilateral and contralateral to CFA injection) in response to radiant heat using digitalized plantar Analgesia Meter for paw stimulation (IITC Model #336TG Life Science, Inc.). A rapid paw withdrawal on the side of CFA injection (compared to the contralateral non-injected paw) was indicative of inflammatory pain. During the training period (before experiments), the light-intensity lamp was adjusted to elicit baseline paw withdrawal latencies between 17 to 20 s (in rats). […] Results were analyzed as temporal courses of paw withdrawal latency (sec) versus time (min or hrs) and expressed as % of maximum possible effect (% MPE) as described in Example 5. A subcutaneous injection of morphine 10 mg/kg served as a positive control.\nFor intra-cerebroventricular injections in rats, a longitudinal incision was made in the scalp to identify the bregma; then animals received a unilateral 5 μl intra-cerebroventricular injection of either FC5-Dalargin or Dalargin alone approximately 0.8 mm anterioposterior (AP) level of bregma, 1.5 mm with respect to the midline and 3.5 mm ventral from the skull surface. Injections were made using a Hamilton syringe equipped with a 25-gauge needle. Injection depth was controlled by a plug on the needle to prevent more than 3.5 mm penetration beyond the skull surface.\nIn contrast, FC5-Dalargin induced cumulative analgesia after each i.v. dosing, reaching 100% MPE 45 min-1 hour after the third injection and gradually ‘washing-out’ over a subsequent three hours (FIG. 12, closed triangles), similar to what was observed after intra-cerebroventricular injections of Dalargin-cys and FC5-Dalargin (FIGS. 10 and 11). If Fc5-Dalargin injection was given 4th time at 3 h (FIG. 12, open polygons), the ‘wash-out’ (i.e., disappearance of analgesic effect) was somewhat extended. […] When Dalargin is functionalized with the blood-brain barrier ‘carrier’ single domain antibody, FC5, Dalargin becomes efficacious in inducing analgesia in chronic pain because FC5 enables its delivery across the blood brain barrier to the sites of its pharmacological action, central opioid receptors.\nas §1, with “5-7 weeks” for “4-6 week”, “5.” for “5. A subcutaneous injection of morphine 10 mg/kg served as a positive control.”\nRats received 5 μl intra-cerebroventricular injections of NPY (1 μg) as described in Example 6.\nNPY was then injected intravenously in the tail vein in two injections, each containing 2.02 mg/kg of NPY, 1 h apart from each other as described in Example 6. […]"}, "opioid receptors": {"biological_target": "opioid receptors (Rattus norvegicus, UniProt P33535)", "sequence (P33535 whole entry)": "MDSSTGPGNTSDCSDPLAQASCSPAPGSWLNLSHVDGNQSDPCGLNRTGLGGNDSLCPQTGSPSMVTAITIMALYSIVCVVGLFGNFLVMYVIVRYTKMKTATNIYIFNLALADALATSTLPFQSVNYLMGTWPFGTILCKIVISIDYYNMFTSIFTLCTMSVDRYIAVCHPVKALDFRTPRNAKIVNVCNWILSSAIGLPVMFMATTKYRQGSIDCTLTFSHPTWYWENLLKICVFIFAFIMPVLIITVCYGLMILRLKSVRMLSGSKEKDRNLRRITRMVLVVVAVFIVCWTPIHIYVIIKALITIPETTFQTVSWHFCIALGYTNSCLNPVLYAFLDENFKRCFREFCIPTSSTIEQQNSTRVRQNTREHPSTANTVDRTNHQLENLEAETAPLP", "assay": "Opioid receptor binding competition assay against 3H-DAMGO in isolated rat brain membranes", "settings": "30 nM 3H-DAMGO, capillary-depleted rat brain membranes", "experimental": "The homogenate was centrifuged at 5800×g (10,000 rpm; Beckman L8-70 Ultracentrifuge, Rotor: SW 40) for 20 min at 4 degrees. The upper parenchyma layer was then collected and centrifuged under the same conditions. The upper parenchyma layer was again collected, and 1 Volume of 50 mM Tris-buffer pH 7.4 containing [2×] of protease inhibitor was added to the collected parenchyma. The mixture was homogenized using a motorized pestle. The homogenate was centrifuged at 46,000×g for 15 minutes at 4° C. The supernatant was removed and the pellet re-suspended in 1 Volume Tris-buffer pH 7.4 containing [2×] of protease inhibitor. The re-suspended pellet was incubated at 37° C. for 15 minutes with agitation in a 50 ml conical tube to dissociate endogenous opioids from receptors. After incubation, the homogenate was centrifuged at 46,000×g for 15 minutes at 4° C. The supernatant was again removed and the pellet re-suspended in 1 to 1.5 Volume Tris-buffer pH 7.4 containing [1×] of protease inhibitor. The membrane preparation was aliquoted into 1.5 ml tubes in 1 ml samples and stored at −80° C.\nOpioid Receptor binding assay used a μ opioid receptor agonist, ^3H-DAMGO, to bind to opioid receptors present in the rat brain membrane preparation. Displacement studies were done with unlabelled ligands, Dalargin, and Dalargin-FC5. Briefly, diluted reagents were prepared using 50 mM Tris-buffer pH7.4, as follows: • i. […] 500 nM FC5-Dal: 16.67 μl 30 μM FC5-Dal and 1 ml Tris-buffer; • v.\nTris-buffer was added to each well, followed by a range of Dalargin concentrations, followed by ^3H-DAMGO. The reaction mixture was left at RT with gentle orbital shaking for 1.5 hr. A scintillation cocktail was then added and radioactive counts were measured using beta scintillation counter.\nSpecific activity for ^3H-DAMGO was 56.8 Ci/mmol. Percentage specific bound at each concentration of unlabelled competitor was calculated using the formula: % specific bound=Bound/Total bound*100."}, "[1]": {"tested_on": "Immortalized Adult Rat brain endothelial cells (ARBEC)", "assay": "Transport across in vitro blood brain barrier model", "settings": "Cy5.5-labelled, 10 μg/ml added to apical chamber, ARBEC monolayer", "experimental": "FC5 and FC5-Dalargin were labelled by covalent conjugation to Cy5.5 N-hydroxysuccinimide (NHS) ester using methods recommended by the manufacturer (GE Healthcare). Cy5.5 NHS was bound to FC5 through a thioether covalent bond.\nImmortalized Adult Rat brain endothelial cells (ARBEC) were used as the in vitro blood brain barrier model. ARBEC (80,000 cells/membrane) were seeded on a 0.5% gelatine-coated Falcon tissue culture inserts (pore size-1 μm; surface area 0.83 cm^2) in 1 ml of growth medium. The bottom chamber of the insert assembly contained 2 ml of growth medium supplemented with the fetal human astrocyte-conditioned medium in a 1:1 (v/v) ratio.\nTransport studies were performed 7 days post-seeding. Filter inserts were rinsed with transport buffer (PBS containing 5 mM glucose, 5 mM MgCl2, 10 mM HEPES, 0.05% BSA, pH 7.4) and allowed to equilibrate at 37° C. for 30 minutes. Experiments were initiated by adding 10 μg/ml Cy5.5-labelled FC5-Dalargin or Cy5.5-labelled FC5 to the apical chamber. Aliquots (100 μl) were collected from the opposite chamber at various time intervals (5, 15, 30, 60, 120 minutes) and replaced with fresh buffer. The amount of FC5-Dalargin transported across HCEC monolayers was determined by fluorescence in a fluorescence plate reader."}, "[2]": {"settings": "0.86 mg/kg of Dalargin, intra-carotid, 30 min after injection"}, "[3]": {"settings": "1.72 mg/kg of Dalargin, intra-carotid, 30 min after injection"}},
  "note": "Non-standard residues stand in square brackets, D forms with d. No end group written: not given here.",
  "data": [
    {"molecule": "FC5-Dalargin: FC5 sdAb conjugated via Sulfo-SMCC cross-linker to Dalargin-cysteamide", "values": [
      {"measurement": "% MPE (30 min)", "setting": "male CD-1 mice; [2]", "result": 63, "unit": "%"},
      {"measurement": "% MPE (30 min)", "setting": "male CD-1 mice; 0.86 mg/kg of Dalargin, intra-carotid, 30 min after injection, listed as FC5-Dal", "result": 63, "unit": "%"},
      {"measurement": "% MPE (30 min)", "setting": "male CD-1 mice; [3]", "result": 66, "unit": "%"},
      {"measurement": "% MPE (30 min)", "setting": "male CD-1 mice; 1.72 mg/kg of Dalargin, intra-carotid, 30 min after injection, listed as FC5-Dal", "result": 66, "unit": "%"},
      {"measurement": "Maximal analgesia, % of maximum effect", "setting": "male CD-1 mice; icv, 30 min after injection", "result": 40, "unit": "%"},
      {"measurement": "Persisting analgesia, % above basal levels", "setting": "male CD-1 mice; icv, for up to 90 min", "result": "10-15%"},
      {"measurement": "% MPE", "setting": "male Wistar rats; i.v. 7 mg/kg, three injections at 0, 1, 2 h, 45 min-1 hour after the third injection", "result": 100, "unit": "%"},
      {"measurement": "Analgesic effect after icv injection", "setting": "male Wistar rats; icv, 74.4 μg", "result": "complete analgesia"},
      {"measurement": "Duration of analgesia after icv injection", "setting": "male Wistar rats; icv, 74.4 μg", "result": 120, "unit": "min"},
      {"measurement": "Displacement of 3H-DAMGO (receptor binding competition)", "setting": "opioid receptors", "result": "only slightly less potent than Dalargin"},
      {"measurement": "Permeability co-efficients (Pe)", "setting": "[1]", "result": 4.17, "unit": "×10⁻⁶ cm/s"}
    ]},
    {"molecule": "Dalargin-cysteamide-OH (Y[dA]GFLR; not fully specified (C-terminus))", "values": [
      {"measurement": "Time of return to basal levels after intra-cerebroventricular injection", "setting": "male CD-1 mice; icv", "result": 60, "unit": "min"},
      {"measurement": "Analgesic effect after intra-cerebroventricular injection", "setting": "male CD-1 mice; icv", "result": "reaching maximal latency of response"},
      {"measurement": "% of maximal effect", "setting": "male Wistar rats; icv, 1.08 μg", "result": 75, "unit": "%"},
      {"measurement": "% MPE", "setting": "male Wistar rats; icv, 10.08 μg", "result": 100, "unit": "%"},
      {"measurement": "Analgesic effect after intravenous injection", "setting": "male Wistar rats", "result": "did not increase latency of withdrawal of the inflamed paw"},
      {"measurement": "Displacement of 3H-DAMGO (receptor binding competition)", "setting": "opioid receptors", "result": "only slightly less potent than Dalargin"}
    ]},
    {"molecule": "CN1CC[C@]23c4c5ccc(O)c4O[C@H]2[C@@H](O)C=C[C@H]3[C@H]1C5", "note": "[Morphine, morphine]", "values": [
      {"measurement": "% of the maximal analgesic effect (observed with 10 mg/kg morphine)", "setting": "male CD-1 mice; 3 mg/kg s.c.", "result": "approximately 50%"},
      {"measurement": "% MPE (30 min)", "setting": "male CD-1 mice; 3 mg/kg sc, 30 min after injection", "result": 56, "unit": "%"},
      {"measurement": "Tail flick latency", "setting": "male CD-1 mice; 10 mg/kg morphine s.c., 30 min after injection, cut-off 10 sec", "result": 10, "unit": "s"},
      {"measurement": "% MPE (30 min)", "setting": "male CD-1 mice; 10 mg/kg sc, 30 min after injection", "result": 100, "unit": "%"},
      {"measurement": "Effect on CFA-injected paw withdrawal latency", "setting": "male Wistar rats; 10 mg/kg subcutaneous, positive control", "result": "prompt increase in CFA-injected paw withdrawal latency to values of the contralateral, non-inflamed paw"},
      {"measurement": "Duration of the increase in paw withdrawal latency", "setting": "male Wistar rats; 10 mg/kg subcutaneous, then slowly diminishing over 3 hours", "result": 60, "unit": "min"}
    ]},
    {"molecule": "Tyr-[D-Ala]-Gly-Phe-Leu-Arg (Y[dA]GFLR) [Dalargin]", "values": [
      {"measurement": "% MPE (30 min)", "setting": "male CD-1 mice; [2]", "result": 19, "unit": "%"},
      {"measurement": "% MPE (30 min)", "setting": "male CD-1 mice; [3]", "result": 17, "unit": "%"},
      {"measurement": "Time of return to basal levels after intra-cerebroventricular injection", "setting": "male CD-1 mice; icv", "result": 60, "unit": "min"},
      {"measurement": "Analgesic effect after intra-cerebroventricular injection", "setting": "male CD-1 mice; icv", "result": "reaching maximal latency of response"},
      {"measurement": "Analgesic effect after intra-carotid injection", "setting": "male CD-1 mice; intra-carotid, 0.86 and 1.72 mg/kg", "result": "No analgesic effect"}
    ]},
    {"molecule": "B1", "values": [
      {"measurement": "Analgesic effect after intravenous injection", "setting": "male Wistar rats", "result": "Neither FC5 alone nor EG2-Dalargin construct induced any analgesic effect"},
      {"measurement": "Displacement of 3H-DAMGO (receptor binding competition)", "setting": "opioid receptors", "result": "did not displace"},
      {"measurement": "Permeability co-efficients (Pe)", "setting": "[1]", "result": 3.25, "unit": "×10⁻⁶ cm/s"}
    ]}
  ]
}
